# Experimental data from patent US9133228B2, “Guanidinyl-substituted polyamides useful for treating human papilloma virus” (Nanovir, LLC, priority 2011, dated 2015).
# Experiments:
# Assay type in all cases: cell-based, Human papilloma virus
# [1] = system: HPV16; assay: Inhibition of viral replication in cells that maintain HPV16 DNA, viral DNA quantified by real-time PCR
# From the text: (§1) Table 1a lists a number of exemplary polyamides synthesized in accordance with the present invention. The HPLC/MW values given in Table 1b were obtained using low resolution high pressure liquid chromatography/mass spectrometry (LR HPLC/MS), which provides moderate precision masses of single isotopomers rather than average molecular weights or exact masses. Table 2 presents a summary of measured IC50 values of certain of these polyamides against HPV16, HPV18 and HPV31. The IC50 is the concentration of compound required for 50% inhibition of viral replication in vitro. The polyamides were tested in cells that maintain HPV16, HPV18 or HPV31 DNA. Cells maintaining the selected HPV were cultured for 72 hours in the presence of the polyamide. Viral DNA was then quantified using real-time PCR and compared to vehicle (DMSO)-treated control cultures. […] Table 3 presents a summary of measured IC50 and IC90 values of certain of these polyamides against HPV16, HPV18 and HPV31.
# [2] = system: HPV18; assay: Inhibition of viral replication in cells that maintain HPV18 DNA, viral DNA quantified by real-time PCR
# From the text: as §1
# [3] = system: HPV31; assay: Inhibition of viral replication in cells that maintain HPV31 DNA, viral DNA quantified by real-time PCR
# From the text: as §1
# [4] = cells maintaining HPV16 cultured 72 hours with polyamide, vs DMSO control, highest dose tested 10 μM
# [5] = cells maintaining HPV18 cultured 72 hours with polyamide, vs DMSO control, highest dose tested 10 μM
# [6] = cells maintaining HPV31 cultured 72 hours with polyamide, vs DMSO control, highest dose tested 10 μM
Compound,"IC50 [1, 4] [nM]","IC50 [2, 5] [nM]","IC50 [3, 6] [nM]","IC50 ([1]; Table 3, 72 hours) [nM]","IC90 ([1]; Table 3, 72 hours) [nM]","IC50 ([2]; Table 3, 72 hours) [nM]","IC90 ([2]; Table 3, 72 hours) [nM]","IC50 ([3]; Table 3, 72 hours) [nM]","IC90 ([3]; Table 3, 72 hours) [nM]"
"CN(CCCN)CCCNC(=O)CCNC(=O)c1cc(NC(=O)c2cc(NC(=O)c3cc(NC(=O)CCNC(=O)c4cc(NC(=O)c5cc(NC(=O)c6cc(NC(=O)CCCNC(=O)c7cc(NC(=O)c8cc(NC(=O)CCNC(=O)c9nc(NC(=O)c%10cc(N=C(N(C)C)N(C)C)cn%10C)cn9C)cn8C)cn7C)cn6C)cn5C)cn4C)cn3C)cn2C)cn1C [NV1094, TMG-PyImβPyPy-γ-PyPyPyβPyPyPyβ-Ta•4TFA]",> 10000,> 10000,> 10000,,,,,,
"CN(CCCN)CCCNC(=O)CCNC(=O)c1cc(NC(=O)CCNC(=O)c2cc(NC(=O)c3cc(NC(=O)c4cc(NC(=O)CCNC(=O)c5cc(NC(=O)c6cc(NC(=O)c7cc(NC(=O)CCCNC(=O)c8cc(NC(=O)CCNC(=O)c9cc(NC(=O)c%10cc(NC(=O)CCNC(=O)c%11cc(NC(=O)c%12cc(N=C(N(C)C)N(C)C)cn%12C)cn%11C)cn%10C)cn9C)cn8C)cn7C)cn6C)cn5C)cn4C)cn3C)cn2C)cn1C [NV1097, TMG-PyPyβPyPyβPy-γ-PyPyPyβPyPyPyβPyβ-Ta•3TFA]",70,257,40,70,1410,257,> 10000,40,10000
"CN(C)CCCNC(=O)CCNC(=O)c1cc(NC(=O)c2cc(NC(=O)c3cc(NC(=O)CCNC(=O)c4cc(NC(=O)c5cc(NC(=O)c6cc(NC(=O)CCNC(=O)c7cc(NC(=O)c8cc(NC(=O)CCCNC(=O)c9cc(NC(=O)c%10cc(NC(=O)CCNC(=O)c%11nc(NC(=O)c%12cc(NC(=O)c%13cc(NC(=O)CCNC(=O)c%14cc(N=C(N(C)C)N(C)C)cn%14C)cn%13C)cn%12C)cn%11C)cn%10C)cn9C)cn8C)cn7C)cn6C)cn5C)cn4C)cn3C)cn2C)cn1C [NV1080, TMG-PyβPyPyImβPyPy-γ-PyPyβPyPyPyβPyPyPyβ-Dp•3TFA]",53,35,47,,,,,,
"CN(CCCN)CCCNC(=O)c1cc(NC(=O)c2cc(NC(=O)CCNC(=O)c3cc(NC(=O)c4cc(NC(=O)c5cc(NC(=O)CCNC(=O)c6cc(NC(=O)c7cc(NC(=O)CCNC(=O)c8cc(NC(=O)[C@H](N)CCNC(=O)c9nc(NC(=O)c%10cc(NC(=O)CCNC(=O)c%11cc(NC(=O)c%12cc(NC(=O)CCNC(=O)c%13cc(NC(=O)c%14cc(N=C(N(C)C)N(C)C)cn%14C)cn%13C)cn%12C)cn%11C)cn%10C)cn9C)cn8C)cn7C)cn6C)cn5C)cn4C)cn3C)cn2C)cn1C [NV1071, TMG-PyPyβPyPyβPyIm-γNH2-PyβPyPyβPyPyPyβPyPy-Ta•5TFA]",255,93,95,,,,,,
"CN(CCCN)CCCNC(=O)CCNC(=O)c1cc(NC(=O)CCNC(=O)c2cc(NC(=O)c3cc(NC(=O)c4cc(NC(=O)CCNC(=O)c5cc(NC(=O)c6cc(NC(=O)CCNC(=O)c7cc(NC(=O)[C@H](N)CCNC(=O)c8nc(NC(=O)c9cc(NC(=O)CCNC(=O)c%10cc(NC(=O)c%11cc(NC(=O)CCNC(=O)c%12cc(NC(=O)c%13cc(N=C(N(C)C)N(C)C)cn%13C)cn%12C)cn%11C)cn%10C)cn9C)cn8C)cn7C)cn6C)cn5C)cn4C)cn3C)cn2C)cn1C [NV1096, TMG-PyPyβPyPyβPyIm-γNH2-PyβPyPyβPyPyPyβPβ-Ta•5TFA]",24,36,35,,,,,,
"CN(CCCN)CCCNC(=O)CCNC(=O)c1cc(NC(=O)CCNC(=O)c2cc(NC(=O)c3cc(NC(=O)c4cc(NC(=O)CCNC(=O)c5cc(NC(=O)c6cc(NC(=O)c7cc(NC(=O)[C@@H](CCNC(=O)c8cc(NC(=O)CCNC(=O)c9cc(NC(=O)c%10cc(NC(=O)CCNC(=O)c%11cc(NC(=O)c%12cc(NC(=O)c%13cc(N=C(N(C)C)N(C)C)cn%13C)cn%12C)cn%11C)cn%10C)cn9C)cn8C)NC(=O)NCCCN(C)CCCN)cn7C)cn6C)cn5C)cn4C)cn3C)cn2C)cn1C [NV1074, TMG-PyPyPyβPyPyβPy-γNHR′-PyPyPyβPyPyPyβPyβ-Ta•5TFA]",178,41,52,,,,,,
"CN(CCCN)CCCNC(=O)CCNC(=O)c1cc(NC(=O)CCNC(=O)c2cc(NC(=O)c3cc(NC(=O)c4cc(NC(=O)CCNC(=O)c5cc(NC(=O)c6cc(NC(=O)CCNC(=O)c7cc(NC(=O)CCCNC(=O)c8nc(NC(=O)c9cc(NC(=O)CCNC(=O)c%10cc(NC(=O)c%11cc(NC(=O)CCNC(=O)c%12cc(NC(=O)c%13cc(N=C(N(C)C)N(C)C)cn%13C)cn%12C)cn%11C)cn%10C)cn9C)cn8C)cn7C)cn6C)cn5C)cn4C)cn3C)cn2C)cn1C [NV1090, TMG-PyPyβPyPyβPyIm-γ-PyβPyPyβPyPyPyβPyβ-Ta•4TFA]",51,53,22,,,,,,
"CN(CCCN)CCCNC(=O)CCNC(=O)c1cc(NC(=O)CCNC(=O)c2cc(NC(=O)c3cc(NC(=O)c4cc(NC(=O)CCNC(=O)c5cc(NC(=O)c6cc(NC(=O)c7cc(NC(=O)CCCNC(=O)c8cc(NC(=O)CCNC(=O)c9cc(NC(=O)c%10cc(NC(=O)CCNC(=O)c%11cc(NC(=O)c%12cc(NC(=O)c%13cc(N=C(N(C)C)N(C)C)cn%13C)cn%12C)cn%11C)cn%10C)cn9C)cn8C)cn7C)cn6C)cn5C)cn4C)cn3C)cn2C)cn1C [NV1098, TMG-PyPyPyβPyPyβPy-γ-PyPyPyβPyPyPyβPyβ-Ta•3TFA]",11,17,24,11,1360,17,> 10000,24,549
"CN(C)CCCNC(=O)CCNC(=O)c1cc(NC(=O)c2cc(NC(=O)c3cc(NC(=O)CCNC(=O)c4cc(NC(=O)c5cc(NC(=O)c6cc(NC(=O)CCNC(=O)c7cc(NC(=O)c8cc(NC(=O)CCCNC(=O)c9cc(NC(=O)c%10cc(NC(=O)CCNC(=O)c%11nc(NC(=O)c%12cc(NC(=O)c%13cc(NC(=O)CCNC(=O)c%14cc(NC(=O)c%15cc(N=C(N(C)C)N(C)C)cn%15C)cn%14C)cn%13C)cn%12C)cn%11C)cn%10C)cn9C)cn8C)cn7C)cn6C)cn5C)cn4C)cn3C)cn2C)cn1C [NV1086, TMG-PyPyβPyPyImβPyPy-γ-PyPyβPyPyPyβPyPyPyβ-Dp•3TFA]",43,62,16,,,,,,
"CN(CCCN)CCCNC(=O)CCNC(=O)c1cc(NC(=O)CCNC(=O)c2cc(NC(=O)c3cc(NC(=O)c4cc(NC(=O)CCNC(=O)c5cc(NC(=O)c6cc(NC(=O)c7cc(NC(=O)[C@H](N)CCNC(=O)c8cc(NC(=O)CCNC(=O)c9cc(NC(=O)c%10cc(NC(=O)CCNC(=O)c%11cc(NC(=O)c%12cc(NC(=O)c%13cc(N=C(N(C)C)N(C)C)cn%13C)cn%12C)cn%11C)cn%10C)cn9C)cn8C)cn7C)cn6C)cn5C)cn4C)cn3C)cn2C)cn1C [NV1076, TMG-PyPyPyβPyPyβPy-γNH2-PyPyPyβPyPyPyβPyβ-Ta]",67,48,104,,,,,,
"CN(C)CCCNC(=O)CCNC(=O)c1cc(NC(=O)CCNC(=O)c2cc(NC(=O)c3cc(NC(=O)c4cc(NC(=O)CCNC(=O)c5cc(NC(=O)c6cc(NC(=O)CCNC(=O)c7cc(NC(=O)CCCNC(=O)c8nc(NC(=O)c9cc(NC(=O)CCNC(=O)c%10cc(NC(=O)c%11cc(NC(=O)CCNC(=O)c%12cc(NC(=O)c%13cc(NC(=O)c%14cc(N=C(N(C)C)N(C)C)cn%14C)cn%13C)cn%12C)cn%11C)cn%10C)cn9C)cn8C)cn7C)cn6C)cn5C)cn4C)cn3C)cn2C)cn1C [NV1088, TMG-PyPyPyβPyPyβPyIm-γ-PyβPyPyβPyPyPyβPyβ-Dp•3TFA]",20,35,14,,,,,,
TMG-PyPyβPyPyβ-γNH2-PyPyPyβPyPyPyβPyβ-Ta•4TFA [NV1095],204,> 10000,49,,,,,,
"CN(CCCN)CCCNC(=O)CCNC(=O)c1cc(NC(=O)c2cc(NC(=O)c3cc(NC(=O)CCNC(=O)c4cc(NC(=O)c5cc(NC(=O)c6cc(NC(=O)CCNC(=O)c7cc(NC(=O)c8cc(NC(=O)CCCNC(=O)c9cc(NC(=O)c%10cc(NC(=O)CCNC(=O)c%11nc(NC(=O)c%12cc(NC(=O)c%13cc(NC(=O)CCNC(=O)c%14cc(N=C(N(C)C)N(C)C)cn%14C)cn%13C)cn%12C)cn%11C)cn%10C)cn9C)cn8C)cn7C)cn6C)cn5C)cn4C)cn3C)cn2C)cn1C [NV1078, TMG-PyβPyPyImβPyPy-γ-PyPyβPyPyPyβPyPyPyβ-Ta•4TFA]",32,27,35,,,,,,
"CN(C)CCCNC(=O)CCNC(=O)c1cc(NC(=O)CCNC(=O)c2cc(NC(=O)c3cc(NC(=O)c4cc(NC(=O)CCNC(=O)c5cc(NC(=O)c6cc(NC(=O)CCNC(=O)c7cc(NC(=O)[C@H](N)CCNC(=O)c8nc(NC(=O)c9cc(NC(=O)CCNC(=O)c%10cc(NC(=O)c%11cc(NC(=O)CCNC(=O)c%12cc(NC(=O)c%13cc(NC(=O)c%14cc(N=C(N(C)C)N(C)C)cn%14C)cn%13C)cn%12C)cn%11C)cn%10C)cn9C)cn8C)cn7C)cn6C)cn5C)cn4C)cn3C)cn2C)cn1C [NV1075, TMG-PyPyPyβPyPyβPyIm-γNH2-PyβPyPyβPyPyPyβPyβ-Dp•4TFA]",124,49,56,,,,,,
"CN(CCCN)CCCNC(=O)CCNC(=O)c1cc(NC(=O)c2cc(NC(=O)c3cc(NC(=O)c4cc(NC(=O)CCNC(=O)c5cc(NC(=O)c6cc(NC(=O)CCCNC(=O)c7cc(NC(=O)c8cc(NC(=O)c9cc(NC(=O)CCNC(=O)c%10cc(N=C(N(C)C)N(C)C)cn%10C)cn9C)cn8C)cn7C)cn6C)cn5C)cn4C)cn3C)cn2C)cn1C [NV1082, TMG-PyβPyPyPy-γ-PyPyβPyPyPyPyβ-Ta•3TFA]",> 10000,> 10000,> 10000,,,,,,
